pKd: −log10 of the molar value. Active and inactive are the calls of the source. No cut-off for these calls is given here.
Key:
Staphylococcus aureus [1] = test: In vivo antibacterial activity against methicillin-resistant Staphylococcus aureus infected in female Kunming mouse skin infection model assessed as reduction in inflammatory cells at 5 to 20 mg/kg measured after 48 hrs by H and E staining based analysis; format: functional, organism-based; details: dose 5-20 mg/kg
L02 = test: Cytotoxicity against human L02 cells assessed as reduction in cell viability at 0.25 ug/ml incubated for 24 hrs by CCK-8 assay relative to control; format: toxicity, cell-based; details: l02, 24 h, at 0.25 µg/mL
Staphylococcus aureus [2] = test: Induction of ROS generation in methicillin-resistant Staphylococcus aureus assessed as fold increase in fluorescence intensity at 2 ug/ml incubated for 8 hrs by DCFH-DA dye analysis; format: functional; details: dose 2 µg/ml
Staphylococcus aureus [3] = test: Antibacterial activity against methicillin-resistant Staphylococcus aureus clinical isolate M-22 incubated for 14 hrs by two-fold serial dilution method; format: functional
Calf thymus DNA [4] = test: Binding affinity to calf thymus DNA assessed as change in Gibbs free energy at 3 uM by ITC assay; format: nucleic-acid assay; details: Bos taurus
Cell membrane [5] = test: Induction of cytoplasmic membrane depolarization in methicillin-resistant Staphylococcus aureus assessed as increase in fluorescence intensity by DiSC35 dye based microplate reader analysis; format: subcellular
Staphylococcus aureus [6] = test: Antibacterial activity against Staphylococcus aureus ATCC 33591 assessed as inhibition of bacterial growth at 1 to 2 times MIC measured after 24 hrs by growth kinetic assay; format: functional, organism-based
[7] = Toxicity in female Kunming mouse assessed as pathological changes in skin tissue at 5 to 20 mg/kg, sc measured after 48 hrs by H and E staining based analysis; format: organism-based; details: in vivo, dose 5-20 mg/kg
Staphylococcus aureus [8] = test: Induction of morphological changes in methicillin-resistant Staphylococcus aureus assessed as appearance of fragments at 0.5 ug/ml incubated for 6 hrs by SEM analysis; format: functional, organism-based; details: dose 0.5 µg/ml
Calf thymus DNA [9] = test: Binding affinity to calf thymus DNA assessed as dissociation constant by ITC assay; format: nucleic-acid assay, Bos taurus
Staphylococcus aureus [10] = test: Induction of morphological changes in methicillin-resistant Staphylococcus aureus assessed as appearance of broken cells at 0.5 ug/ml incubated for 6 hrs by SEM analysis; format: functional, organism-based; details: dose 0.5 µg/ml
Staphylococcus aureus [11] = test: Antibacterial activity against Staphylococcus aureus ATCC 33591 assessed as log reduction in bacterial growth at 4 times MIC measured at 6 hrs by time-kill kinetic assay; format: functional
[12] = Toxicity in female Kunming mouse assessed as inflammatory response in liver at 500 to 2000 mg/kg, sc measured after 7 days by H and E staining based analysis; format: organism-based; details: in vivo, 168 h, dose 500-2000 mg/kg, time 7 day
Staphylococcus aureus [13] = test: Antibacterial activity against methicillin-resistant Staphylococcus aureus assessed as reduction in bacterial growth by measuring fold increase in MIC in presence of 32 ug/ml peptidoglycan incubated for 0.5 hrs by exogenous addition assay; format: functional
Cell membrane [14] = test: Induction of cell membrane permeability in methicillin-resistant Staphylococcus aureus assessed as increase in protein leakage at 2 ug/ml incubated for 8 hrs by Bradford assay; format: subcellular; details: dose 2.0 µg/ml
Staphylococcus aureus [15] = test: Antibacterial activity against methicillin-resistant Staphylococcus aureus assessed as reduction in bacterial growth in presence of 16 ug/ml peptidoglycan incubated for 0.5 hrs by exogenous addition assay; format: functional, organism-based
Staphylococcus aureus [16] = test: In vivo antibacterial activity against methicillin-resistant Staphylococcus aureus infected in female Kunming mouse skin infection model assessed as appearance of smooth inside skin at 20 mg/kg measured after 48 hrs; format: functional, organism-based
Staphylococcus aureus [17] = test: Antibacterial activity against methicillin-resistant Staphylococcus aureus assessed as reduction in LDH activity incubated for 8 hrs; format: functional, organism-based; details: dose 0.25-2 µg/ml
Staphylococcus aureus [18] = test: In vivo antibacterial activity against methicillin-resistant Staphylococcus aureus infected in female Kunming mouse skin infection model assessed as log reduction in bacterial load at 20 mg/kg measured after 48 hrs (reference value: 14.34 log10CFU/g); format: functional
[19] = Acute toxicity in female Kunming mouse assessed as aberrant appearance at 500 to 2000 mg/kg, sc measured after 7 days; format: organism-based; details: in vivo, 168 h, dose 500-2000 mg/kg, time 7 day
[20] = Toxicity in female Kunming mouse assessed as pathological changes in kidney at 500 to 2000 mg/kg, sc measured after 7 days by H and E staining based analysis; format: organism-based; details: in vivo, 168 h, dose 500-2000 mg/kg, time 7 day
Staphylococcus aureus [21] = test: Induction of oxidative damage in methicillin-resistant Staphylococcus aureus assessed as reduction in SOD activity incubated for 8 hrs; format: functional, organism-based; details: dose 0.25-2 µg/ml
[22] = Hemolytic activity in sheep RBC assessed as hemolysis at 1024 ug/ml incubated for 1 hrs relative to control; format: toxicity, cell-based, Ovis aries, Erythrocyte; details: sheep red blood cells, at 1024 µg/mL, read-out: Activity
Staphylococcus aureus [23] = test: Antibacterial activity against methicillin-resistant Staphylococcus aureus clinical isolate M-16 incubated for 14 hrs by two-fold serial dilution method; format: functional
Staphylococcus aureus [24] = test: In vivo antibacterial activity against methicillin-resistant Staphylococcus aureus infected in female Kunming mouse skin infection model assessed as reduction in bacterial load measured after 48 hrs; format: functional, organism-based; details: dose 5-20 mg/kg
Staphylococcus aureus [25] = test: Antibacterial activity against Staphylococcus aureus CMCC 26003 assessed as inhibition of bacterial growth incubated for 14 hrs by two-fold serial dilution method; format: functional
Staphylococcus aureus [26] = test: Antibacterial activity against Staphylococcus aureus ATCC 25923 assessed as inhibition of bacterial growth incubated for 14 hrs by two-fold serial dilution method; format: functional
Staphylococcus aureus [27] = test: Antibacterial activity against Staphylococcus aureus ATCC 33591 assessed as resistance development by measuring fold increase in MIC at 0.5 times MIC incubated for 8 hrs and measured after 15 passages; format: functional
[28] = Toxicity in female Kunming mouse assessed as pathological changes in liver at 500 to 2000 mg/kg, sc measured after 7 days by H and E staining based analysis; format: organism-based; details: in vivo, 168 h, dose 500-2000 mg/kg, time 7 day
Staphylococcus aureus [29] = test: Antibacterial activity against methicillin-resistant Staphylococcus aureus clinical isolate M-20 incubated for 14 hrs by two-fold serial dilution method; format: functional
Staphylococcus aureus [30] = test: In vivo antibacterial activity against methicillin-resistant Staphylococcus aureus infected in female Kunming mouse skin infection model assessed as recovery of dorsal surface at 5 to 20 mg/kg measured after 48 hrs; format: functional, organism-based; details: dose 5-20 mg/kg
Staphylococcus aureus [31] = test: Antibacterial activity against Staphylococcus aureus ATCC 33591 assessed as log reduction in bacterial growth at 2 times MIC measured at 6 hrs by time-kill kinetic assay; format: functional
Staphylococcus aureus [32] = test: Antibacterial activity against methicillin-resistant Staphylococcus aureus assessed as increase MIC incubated for 6 hrs in presence of 70 to 100% sheep plasma; format: functional
[33] = Acute toxicity in female Kunming mouse assessed as aberrant behavior at 500 to 2000 mg/kg, sc measured after 7 days; format: organism-based; details: in vivo, 168 h, dose 500-2000 mg/kg, time 7 day
Staphylococcus aureus [34] = test: Antibacterial activity against Staphylococcus aureus ATCC 29213 assessed as inhibition of bacterial growth incubated for 14 hrs by two-fold serial dilution method; format: functional
Staphylococcus aureus [35] = test: Bactericidal activity against Staphylococcus aureus ATCC 33591 assessed as eradication of bacteria at 4 times MIC measured at 4 hrs by time-kill kinetic assay relative to control; format: functional
Staphylococcus aureus [36] = test: Antibiofilm activity against methicillin-resistant Staphylococcus aureus assessed as inhibition of biofilm formation at 2 ug/ml incubated for 24 hrs by crystal violet staining based analysis relative to control; format: functional; design: scale not given: the % may be the effect or the level left; details: dose 2 µg/ml
Staphylococcus aureus [37] = test: Antibacterial activity against methicillin-resistant Staphylococcus aureus clinical isolate M-18 incubated for 14 hrs by two-fold serial dilution method; format: functional
Staphylococcus aureus [38] = test: Antibacterial activity against methicillin-resistant Staphylococcus aureus ATCC 33591 assessed as inhibition of bacterial growth incubated for 14 hrs by two-fold serial dilution method; format: functional

## C[n+]1ccc2c3ccccc3n(CCCCCCCCCCCn3c4ccccc4c4cc[n+](C)cc43)c2c1.[I-].[I-]
Staphylococcus aureus [1]
  Activity: Active
L02
  Activity: 97.25%
Staphylococcus aureus [2]
  fold change (FC): 4.34
Staphylococcus aureus [3]
  MIC: 0.5 µg/mL
Calf thymus DNA [4]
  deltaG: -7.29 kcal/mol
Cell membrane [5]
  Activity: Dose-dependent-effect
Staphylococcus aureus [6]
  Activity: Active
[7]
  Activity: Non-toxic
Staphylococcus aureus [8]
  Activity: Active
Calf thymus DNA [9]
  pKd: 5.34
Staphylococcus aureus [10]
  Activity: Active
Staphylococcus aureus [11]
  Activity: 5.31 log10CFU/ml
[12]
  Activity: Non-toxic
Staphylococcus aureus [13]
  fold change (FC): 4
Cell membrane [14]
  Activity: 27.8 µg/mL
Staphylococcus aureus [15]
  Activity: Active
Staphylococcus aureus [16]
  Activity: Active
Staphylococcus aureus [17]
  Activity: Dose-dependent-effect
Staphylococcus aureus [18]
  Activity: 7.29 log10CFU/g
[19]
  Activity: Non-toxic
[20]
  Activity: Non-toxic
Staphylococcus aureus [21]
  Activity: Dose-dependent-effect
[22]
  hemolysis at 1 h, 1024 ug/ml: 26.4%
Staphylococcus aureus [23]
  MIC: 0.5 µg/mL
Staphylococcus aureus [24]
  Activity: Dose-dependent-effect
Staphylococcus aureus [25]
  MIC: 0.25 µg/mL
Staphylococcus aureus [26]
  MIC: 1 µg/mL
Staphylococcus aureus [27]
  fold change (FC): 2
[28]
  Activity: Non-toxic
Staphylococcus aureus [29]
  MIC: 0.5 µg/mL
Staphylococcus aureus [30]
  Activity: Active
Staphylococcus aureus [31]
  Activity: 4.26 log10CFU/ml
Staphylococcus aureus [32]
  MIC: 0.5 µg/mL
[33]
  Activity: Non-toxic
Staphylococcus aureus [34]
  MIC: 1 µg/mL
Staphylococcus aureus [35]
  Activity: 100%
Staphylococcus aureus [36]
  Activity: 79%
Staphylococcus aureus [37]
  MIC: 0.5 µg/mL
Staphylococcus aureus [38]
  MIC: 0.25 µg/mL

— ChEMBL document CHEMBL6177951, “Synthesis and anti-MRSA activity of quaternized small molecule antimicrobial peptide mimics based on norharmane” (Eur J Med Chem, 2025)
